Reference: patent publication US8722910B2, “Diyne compositions” (Evolva AG, priority 2009, dated 2014)
Converted amounts (≈) assume the structure as drawn.

Columns and labels:
[1] = system: A. niger; assay: Susceptibility of clinical Aspergillus isolates (MIC); format: cell-based; settings: 24 h
Experimental: (§1) The efficacy of compound IV″ was investigated on 563 clinical isolates of 33 human fungal pathogens. […] For species with n≧10, the MIC90 (MIC, minimal inhibitory concentration) is given as ng/ml. For species with n≦10, the MIC range is given as ng/ml. 24 h and 48 h reads are indicated (Table 1).
(§2) Susceptibilities were determined according to the CLSI reference method M38-A2.

[2] = system: A. versicolor; assay: as above; format: cell-based
Experimental: as §1, §2

[3] = system: A. nidulans; assay: as above; format: cell-based; settings: 24 h
Experimental: as §1, §2

[4] = system: A. flavus; assay: as above; format: cell-based
Experimental: as §1, §2

[5] = system: A. terreus; assay: as above; format: cell-based
Experimental: as §1, §2

[6] = system: A. fumigatus; assay: as above; format: cell-based
Experimental: as §1, §2

[7] = Stability of diyne salts on storage (HPLC content); format: physicochemical; settings: crystalline solid
Experimental: Potassium (Z)-14-(furan-2-yl)tetradeca-9-en-11,13-diynoate was kept as a crystalline solid for 6 month at 2-8° C. The content of potassium (Z)-14-(furan-2-yl)tetradeca-9-en-11,13-diynoate was determined by HPLC against a reference sample kept at −20° C. After 6 months of storage characteristics such as colour, water content, XRPD profile, of the solid had not changed and it was still a beige solid. […] Also no change in the impurity profile was observed after 6 months storage.
Potassium (Z)-14-(furan-2-yl)tetradeca-9-en-11,13-diynoate was also kept as a crystalline solid for 6 month at 25° C., 60% RH. Analysis was performed as described above. After 6 months of storage characteristics of the solid has not changed and it was still a beige solid. […] Also no change in the impurity profile was observed after 6 months storage.
Potassium (Z)-14-(furan-2-yl)tetradeca-9-en-11,13-diynoate was also kept as a crystalline solid for 6 month at 40° C., 75% RH. Analysis was performed as described above. After 6 months of storage the appearance of the solid had changed to a brown solid. Furthermore, a decrease in the content of potassium (Z)-14-(furan-2-yl)tetradeca-9-en-11,13-diynoate to 96% was observed as analysed by HPLC.
Sodium (Z)-14-(furan-2-yl)tetradeca-9-en-11,13-diynoate was kept as an amorphous solid at room temperature. […] Furthermore the salt was dissolved in an aqueous solution and already after few days the content of sodium (Z)-14-(furan-2-yl)tetradeca-9-en-11,13-diynoate was reduced by 35%, thus proving strong instability of the amorphous salt form.

[8] = system: B. dermatitidis; assay: Susceptibility of clinical dimorphic fungi (MIC); format: cell-based; settings: B. dermatitidis (n = 30)
[9] = system: C. albicans; assay: Mice infected systemically with C. albicans, oral dosing, kidney burden; format: in vivo; settings: orally twice daily for 3 days, vs untreated
Experimental: Mice were infected systemically with C. albicans. Compound IV″ was administered orally twice daily for 3 days at 5 mg/kg or 10 mg/kg per dose. Kidney fungal burden decreased by 88% and 94% respectively, compared to the untreated control (as shown in FIG. 12 showing kidney fungal burden as determined by colony forming units (CFU) per gram of homogenised tissue).

[10] = system: Zygomycetes; assay: Susceptibility of clinical isolates (MIC, broth dilution); format: cell-based; settings: Zygomycetes (n = 20)
Experimental: as §1

[11] = system: Fonsecaea pedrosi; assay: as above; format: cell-based; settings: Fonsecaea pedrosi (n = 4)
Experimental: as §1

[12] = system: Phialophora verrucosa; assay: as above; format: cell-based; settings: Phialophora verrucosa (n = 4)
Experimental: as §1

[13] = system: Fusarium solani; assay: as above; format: cell-based; settings: Fusarium solani (n = 10)
Experimental: as §1

[14] = system: C. neoformans; assay: as above; format: cell-based; settings: C. neoformans (n = 18)
Experimental: as §1

[15] = system: Sporothrix schenckii; assay: as above; format: cell-based; settings: Sporothrix schenckii (n = 10)
Experimental: as §1

[16] = In vitro Mammalian Cell Cytotoxicity; format: cell-based; settings: African green monkey, Vero cells
[17] = system: C. lipolytica; assay: In vitro antifungal activity vs. yeasts (MIC/MFC); format: cell-based; settings: Yarrowia lipolytica, C. lipolytica (n = 1)
[18] = system: T. terrestre; assay: In vitro antifungal activity vs. dermatophytes (MIC/MFC); format: cell-based; settings: T. terrestre (n = 1)
[19] = Solubility in water (incremental addition, 50° C.); format: physicochemical; settings: 10 mg, water added up to 50 μl
Experimental: Solubility in water was determined. This was carried out by transferring 10 mg of the material into 1.5 ml HPLC vials. Then 10 μl (1 vol) of water was added. The sample was then isothermally held at 50° C. with stirring for 30 mins. The process was continued up to 50 μl by 10 μl increments with heating to 50° C. in between.

[20] = system: Chitin Synthase; assay: Inhibition of fungal cell wall synthesis enzymes; format: biochemical
Description: Specific inhibitors of each enzyme served as positive controls (Cilofungin, a β-glucan synthase inhibitor and nikkomycin Z, a chitin synthase inhibitor).

[21] = system: all Candida strains; assay: MIC range over all Candida strains tested; format: cell-based; settings: Table 13 strains
[22] = In vitro Mammalian Cell Cytotoxicity; format: cell-based; settings: human, HFF cells
[23] = system: Malassezia furfur; assay: In vitro antifungal activity vs. yeasts (MIC/MFC); format: cell-based; settings: Malassezia furfur (n = 1)
[24] = system: C. albicans; assay: Effect on the morphology of growing Candida albicans cultures; format: cell-based; settings: inhibiting concentrations
[25] = system: Escherichia coli 700; assay: In vitro Antibacterial Activity; format: cell-based
[26] = 90% inhibition endpoint, read-out: MIC

In the case of `O=C([O-])CCCCCCC/C=C\C#CC#Cc1ccco1.[K+]` [Compound IV″, potassium (Z)-14-(furan-2-yl)tetradeca-9-en-11,13-diynoate], the MIC50 [1] is reported as 2560 ng/mL, the “MIC90/MIC range 24 h” value ([2]; A. versicolor (n = 4), MIC range, 24 h) is reported as 80 to 2560 ng/mL and the “MIC90/MIC range 48 h” value ([2]; A. versicolor (n = 4), MIC range, 48 h) is reported as 160 to 5120 ng/mL. For the same compound, the MIC50 ([2]; Aspergillus versicolor, 24 h) was 1280 ng/mL, the MIC50 [3] was 5120 ng/mL and the “MIC90/MIC range 48 h” value ([4]; A. flavus (n = 5), MIC range, 48 h) was >5120 ng/mL. For the same compound, the MIC50 ([4]; Aspergillus flavus, 24 h) was > 5120 ng/mL, the “MIC90/MIC range 24 h” value ([5]; A. terreus (n = 5), MIC range) was 10 to 20 ng/mL and the MIC50 ([5]; Aspergillus terreus, 24 h) was 10 ng/mL. For the same compound, the “MIC90/MIC range 24 h” value ([6]; A. fumigatus (n = 40), MIC90, 24 h) was 160 ng/mL, the “MIC90/MIC range 48 h” value ([6]; A. fumigatus (n = 40), MIC90, 48 h) was 1280 ng/mL and the MIC50 ([6]; Aspergillus fumigatus, 24 h) was 80 ng/mL. The “content after storage (HPLC)” value ([7]; 6 month at 2-8° C.) was “had not significantly changed”, the “content after storage (HPLC)” value ([7]; 6 month at 25° C., 60% RH) was “had not changed significantly” and the “content after storage (HPLC), decrease to” value ([7]; 6 month at 40° C., 75% RH) was 96%. The “MIC90/MIC range 48 h” value ([8]; MIC90, 48 h) was 30 ng/mL, the MIC90 ([8]; Blastomyces dermatitidis, CLSI M38-A2, 50% growth reduction, MIC read at 96 h) was 30 ng/mL and the “decrease of kidney fungal burden” value ([9]; 5 mg/kg per dose) was 88%. The “decrease of kidney fungal burden” value ([9]; 10 mg/kg per dose) was 94%, the “MIC90/MIC range 48 h” value [10] was 16000 ng/mL and the “MIC90/MIC range 48 h” value [11] was 80 to 2560 ng/mL. The “MIC90/MIC range 48 h” value [12] was 40 to 640 ng/mL, the “MIC90/MIC range 48 h” value [13] was >64000 ng/mL and the “MIC90/MIC range 48 h” value [14] was 2000 ng/mL. For the same compound, the “MIC90/MIC range 48 h” value [15] was 32 to 5120 ng/mL.
With `O=C(O)CCCCCCC/C=C\C#CC#Cc1ccco1` [Compound III″] the CC50 [16] was 46000 ng/mL (≈ 162 µM), the MFC [17] was < 0.06 ng/mL and the MIC [17, 26] was < 0.06 ng/mL. The MIC ([18]; 96 h, 35° C., 4 days) was < 0.06 ng/mL, the MFC [18] was 16000 ng/mL (≈ 56.3 µM) and the “MIC90/MIC range 48 h” value ([18]; 48 h) was <0.06 ng/mL. The solubility in water [19] was “still did not dissolve”, the “% Inhibition, Chitin Synthase” value ([20]; 10 μg/ml) was 16% and the “% Inhibition, Chitin Synthase” value ([20]; 100 μg/ml) was 85%. The “% Inhibition, Chitin Synthase” value ([20]; 500 μg/ml) was 97%, the “concentrations at which the enzymes were inhibited” value ([20]; chitin synthase and β-glucan synthase) was > 100 µg/mL and the “MIC range for all Candida strains” value [21] was <0.06 to 4000 ng/mL. The CC50 [22] was 75000 ng/mL (≈ 264 µM), the MFC [23] was < 0.06 ng/mL and the MIC [23, 26] was < 0.06 ng/mL. For the same compound, the “effect on hyphal tube formation” value ([24]; microscopy) was “prevented hyphal tube formation”, the “effect on cell growth” value ([24]; microscopy and MTT) was “fungicidal, totally preventing cell growth” and the MIC90 [25] was > 200000 ng/mL.
